Source: patent US6340678B1, “4,4-difluoro-2,3,4,5-tetrahydro-1H-1-benzoazepine derivatives and drug compositions containing them” (Yamanouchi Pharmaceutical Co., Ltd., priority 1997, dated 2002)
Positions of bridges follow the written chain, without caps; N, C: chain ends. Non-standard residues stand in square brackets, D forms with d. Residues, ends and D or L forms follow the SMILES beside them. Orn = NCCC[C@H](N)C(=O)O; Mpa = O=C(O)CCS

Molecular target: T1, oxytocin receptor (Rattus norvegicus, UniProt P70536)
T1 construct: uterus was excised, and a membrane sample was prepared therefrom; from tissue; host or cells: rat uterus (membrane preparation after diethylstilbestrol dipropionate treatment)
T1 sequence (P70536 1-388): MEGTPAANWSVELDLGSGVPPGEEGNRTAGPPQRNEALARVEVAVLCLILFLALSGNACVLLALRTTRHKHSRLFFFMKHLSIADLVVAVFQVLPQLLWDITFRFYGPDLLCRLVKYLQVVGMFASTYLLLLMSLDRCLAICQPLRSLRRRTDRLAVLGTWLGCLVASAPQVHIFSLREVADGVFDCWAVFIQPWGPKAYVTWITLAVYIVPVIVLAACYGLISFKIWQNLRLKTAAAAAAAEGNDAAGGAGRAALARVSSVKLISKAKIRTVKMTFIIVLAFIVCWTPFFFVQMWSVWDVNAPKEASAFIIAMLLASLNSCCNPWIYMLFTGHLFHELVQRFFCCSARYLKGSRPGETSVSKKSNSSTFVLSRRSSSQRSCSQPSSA
Test: Oxytocin receptor binding assay ([3H]-oxytocin, rat uterine membrane sample)
Description: (Oxytocin Receptor Binding Assay)
Preparation of Uterine membrane was prepared by a method of Soroff, et al. (J. Biol. Chem., 249: 1376, 1974) while a binding assay was performed by a method of Pettibone, et al. (Endocrinology, 125: 217, 1989). Diethylstilbestrol dipropionate (0.3 mg/kg) was administered to a rat intraperitoneally, and after 18 to 24 hours, uterus was excised, and a membrane sample was prepared therefrom. [^3H]-Oxytocin (0.5 nM; specific activity=30 to 60 Ci/mmol), 50 μg of the membrane sample and a test drug (10^−8 to 10^−5 M) were incubated at room temperature for 60 minutes in 250 μl (total volume) of 50 mM Tris hydrochloride buffer (pH 7.4) containing 10 mM of magnesium chloride and 0.1% of bovine serum albumin (BSA). […] The glass filter was taken out, well dried and mixed with a cocktail for liquid scintillation, the amount of [^3H]-oxytocin bound to the sample was determined by a liquid scintillation counter, and the inhibition rate was calculated from the following equation: […]
wherein [L] is a concentration of the radioactive ligand; and Kd is a dissociation constant calculated from the scattered plots.
Then, a negative logarithmic value of Ki calculated hereinabove was taken as pKi. […]

With `CCOc1ccc(C[C@H]2NC(=O)CCSSC[C@@H](C(=O)N3CCC[C@H]3C(=O)N[C@@H](CCCN)C(=O)NCC(N)=O)NC(=O)[C@H](CC(N)=O)NC(=O)[C@H]([C@@H](C)O)NC(=O)[C@H]([C@@H](C)CC)NC2=O)cc1` [atosiban] ([Mpa][dY](Et)ITNCP[Orn]G-NH2; disulfide 1-6) the Ki was 11.7 nM.
